In US10450549B2, “Aryloxyphenoxypropionate tolerance in turfrgass species and use of AAD1 as a selectable marker” (Dow AgroSciences, LLC, priority 2004, dated 2019):
Like-named read-outs stand apart in the source and are kept apart here.

How the values were obtained:
AAD1 (v1) = biological target: T1, AAD1 (v1) (Sphingobium herbicidovorans, UniProt Q8KSC8); experiment: Colorimetric phenol detection assay of AAD1 (v1) activity (purified enzyme or E. coli extract); type: biochemical; settings: for activity of AAD1 (v1) E. coli extract on substrate: 0.5 mM substrate, 4 μl extract, 15 min; for A510, AAD1 / A510, AAD1 (10x): Table 4, substrate 1 mM; for A510, AAD1: 1 μg purified AAD1 (v1) per 0.16 ml assay; for A510, AAD1 (10x): 10 μg purified AAD1 (v1) per 0.16 ml assay
T1 construct: made in house; host or cells: E. coli BL-21 Star (DE3), plasmid pDAB3203

[1] = system: Agrostis palustris var. Pencross; experiment: Bentgrass plate test bioassay for herbicide degradation; type: in vivo; settings: for GR50 ratio: enzyme-expressing lysate vs blank vector, ≥ 2 = threshold
Experimental: Because of the selective nature of the herbicides being tested (i.e., monocot plants controlled by AOPP herbicides and dicot plants controlled by auxinic herbicides), wildtype Agrostis palustris var. Pencross and Arabidopsis thaliana var. Columbia were used as monocot and dicot test species, respectively. Each species is amenable to germination and growth in small Petri dishes.
Twenty to thirty sterilized seeds for each test species used were added onto a sterile, solidified agar Plate Test Medium (PTM) [2.5 mM KNO3, 2.5 mM KH2PO4, […], 10 mM NaEDTA (pH 8.0), 2 mM MgSO4, 2 mM Ca(NO3) 2, 70 μM H3BO3, 14 μM MnCl2, 0.5 μM CuSO4, 1 μM ZnSO4, 0.2 μM NaMoO4.2H2O, 10 μM NaCl, 10 nM CoCl2.H2O, 0.8% (w/v) sucrose, 0.4% agarose (w/v)] for bioassay in 60×15-mm Petri dishes (Falcon 1007). PTM was additionally modified by adding up to six rates of test herbicide standards or herbicide-enzyme test solution dilutions such that the four-fold concentration increments covered a rate range of three orders of magnitude with the GR50 rate (50% growth reduction) approximately in the center of the range.
For herbicide-enzyme test solutions, the maximal concentration was determined based on the nominal concentration before any subsequent enzymatic degradation would occur. Seeds were evenly spread by adding 3 ml of melted PTM of the same composition, swirling, and allowing to solidify. Plates were sealed and maintained under sterile conditions in a low light growth chamber (24 h day^−1, 100 μE/m^2s^1, 23° C.) for 7 days. Root length or root+shoot length were measured for five randomly chosen Arabidopsis and bentgrass plants, respectively, average mean length (percent of untreated control) vs. nominal herbicide concentration and GR50 determined.

[2] = system: transformed-control line containing PAT and Cry1F; experiment: Foliar-applied auxinic herbicides on control (PAT/Cry1F, wildtype) Arabidopsis, % injury 14 DAT; type: in vivo, Arabidopsis thaliana; settings: PatCry1f - Control
Experimental: The ability of AAD1 (v3) to provide resistance to other aryloxyphenoxyalkanoate auxin herbicides in transgenic Arabidopsis was determined by foliar application of various substrates described in Example 6.8. T4 generation Arabidopsis seed, homozygous for AAD1 (v3) (line AAD1.01.315.076) was stratified, and sown into selection trays much like that of Arabidopsis (Example 6.4). A transformed-control line containing PAT and the insect resistance gene Cry1F was planted in a similar manner. Seedlings were transferred to individual 3-inch pots in the greenhouse. All plants were sprayed with the use of a track sprayer set at 187 L/ha. […] All applications were formulated in 200 mM Hepes buffer (pH 7.5). Each treatment was replicated 3-4 times. Plants were evaluated at 3 and 14 days after treatment and are averaged over two experiments.

[3] = system: AAD1 (v3) T1 tobacco (events 721(2)-013.010 and 721(3)-008.005); experiment: Segregating AAD1 T1 tobacco response to phenoxy auxin herbicides; type: in vivo, Nicotiana tabacum
Source text: (§1) Two AAD1 (v3) tobacco lines (event 721(2)-013.010 and 721(3)-008.005) were chosen from the T0 generation. The T1 seed was stratified, and sown into selection trays much like that of Arabidopsis (Example 6.4), followed by selective removal of untransformed nulls in this segregating population with 280 g ai/ha glufosinate (PAT selection). Survivors were transferred to individual 3-inch pots in the greenhouse. […] Improved consistency of response is anticipated in T1 plants not having come directly from tissue culture. These plants were compared against wildtype KY 160 tobacco. All plants were sprayed with the use of a track sprayer set at 187 L/ha. […] All applications were formulated in 200 mM Hepes buffer (pH 7.5). Each treatment was replicated 4 times. Plants were evaluated at 3 and 14 days after treatment. Plants were assigned injury rating with respect to stunting, chlorosis, and necrosis. The T1 generation is segregating, so some variable response is expected due to difference in zygosity. (Table 28).

[4] = system: T4 Arabidopsis homozygous for AAD1 (v3) (line AAD1.01.315.076); experiment: Foliar-applied auxinic herbicides on homozygous T4 AAD1 (v3) Arabidopsis, % injury 14 DAT; type: in vivo, Arabidopsis thaliana; settings: AAD1.01.315.076.T4 homozygous AAD1 plants
Summary of the method: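 Homozygous T4 AAD1 (v3) Arabidopsis (line AAD1.01.315.076) and a PAT/Cry1F transformed control were grown in pots and track-sprayed foliarly at 187 L/ha with herbicides formulated in 200 mM Hepes pH 7.5. Injury was rated 14 days after treatment, with 3-4 replicates averaged over two experiments.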

wildtype KY 160 tobacco = experiment: Wildtype tobacco response to phenoxy auxin herbicides; type: in vivo, Nicotiana tabacum; settings: KY160-Wildtype
Experimental: Each treatment was replicated 1-3 times. Injury ratings were recorded 3 and 14 DAT. […] In several events, some initial auxinic herbicide-related epinasty occurred at doses of 800 g ae/ha or less. […] All events suffered some level temporary auxinic damage 3 DAT when treated with 3200 g ae/ha. Some leaf burning also occurred at this high rate due to the acidity of the spray solution. Future trials at high 2,4-D rates were buffered. […] Some events were inconsistent in response among replicates and were deemed “variable” (Table 27).
as §1

[5] = system: AAD1 (v3)-transformed T0 corn events; experiment: Tolerance of T0 AAD1 (v3) corn plants (pDAB3404) to postemergence AOPP herbicides; type: in vivo
[6] = system: Hi-II corn grown from seed; experiment: Lethal dose of AOPP herbicides on non-transformed Hi-II corn
[7] = system: F1 corn containing AAD1 (v3), PAT, and glyphosate resistance genes; experiment: Greenhouse injury of F1 corn stacked with AAD1 (v3), PAT and glyphosate resistance (2,4-D DMA, glyphosate, glufosinate and combinations); type: in vivo; settings: RR/PAT/AAD1
Source text: Homozygous T2 AAD1 (v3)/PAT corn plants were crossed with glyphosate resistant corn plants producing F1 seed containing AAD1 (v3), PAT, and glyphosate resistance genes as described in the previous example.
(§2) F1 seeds were planted individually into 3-inch pots prepared with Metro-Mix® 360 growing medium (Sun Gro Horticulture). […] For the remainder of the study the plants were subirrigated with deionized water.
(§3) The plants were sprayed with rates of 2,4-D DMA, glyphosate, glufosinate, and various combinations of the three. All applications were formulated in 200 mM Hepes buffer (pH 7.5). In spray applications where glufosinate was present the treatment was formulated with the addition of 2% w/v ammonium sulfate.
(§4) At 3 and 14 days after treatment (DAT) plants were evaluated. Plants were assigned injury rating with respect to stunting, chlorosis, and necrosis. Plants assigned an injury rating of 90% or above are considered dead.

Hi II X 5XH751 = experiment: Greenhouse injury of non-transformed Hi II X 5XH751 corn (2,4-D DMA, glyphosate, glufosinate and combinations); type: in vivo
Experimental: as §2, §3, §4

[8] = Agrostis stolonifera, AAD1 (v1)-expressing lysate, nominal concentration, read-out: GR50, Chemical + AAD1 v1
[9] = Escherichia coli, in Agrostis stolonifera, cell lysate of E. coli pET vector without gene insert, read-out: GR50, Chemical + Blank Vector
[10] = purified AAD1 (v1), 1 mM substrate

T1 sequence (Q8KSC8 whole entry): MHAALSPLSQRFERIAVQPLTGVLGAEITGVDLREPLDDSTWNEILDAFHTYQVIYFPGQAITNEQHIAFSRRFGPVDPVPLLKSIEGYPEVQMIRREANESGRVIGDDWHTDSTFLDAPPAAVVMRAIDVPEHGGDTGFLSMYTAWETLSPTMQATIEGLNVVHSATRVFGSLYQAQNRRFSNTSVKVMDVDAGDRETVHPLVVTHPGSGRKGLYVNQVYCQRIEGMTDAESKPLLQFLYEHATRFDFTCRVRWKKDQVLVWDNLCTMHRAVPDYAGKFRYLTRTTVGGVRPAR

## CC(Oc1ccc(Oc2ccc(Cl)cc2Cl)cc1)C(=O)O (racemic) [(R,S)- diclofop]
AAD1 (v1)
  activity of AAD1 (v1) E. coli extract on substrate: cleaved
  A510, AAD1: 0.155
  A510, AAD1 (10x): 1.663
[1]; AAD1 (v1) extract
  herbicidal activity after AAD1 (v1) treatment, bentgrass plate bioassay: loss of herbicidal activity
[1]; [8]
  IC50: 130 nM
[1]; [9]
  IC50: 20 nM
[1]
  GR50 ratio: 7

## CC(Oc1ccc(Oc2ncc(C(F)(F)F)cc2Cl)cc1)C(=O)O (stereo not shown) [Haloxyfop-RS]
AAD1 (v1)
  activity of AAD1 (v1) E. coli extract on substrate: cleaved
[1]; Agrostis stolonifera, 168 h, root+shoot length, 7 days, read-out: GR50, Chemical alone
  IC50: 28 nM
[1]; [8]
  IC50: 520 nM
[1]; [9]
  IC50: 21 nM
[1]
  GR50 ratio: 25

## C[C@@H](Oc1ccc(Cl)cc1Cl)C(=O)O [R-dichlorprop]
AAD1 (v1); purified AAD1 (v1)
  kcat: 0.435 s⁻¹
AAD1 (v1); purified AAD1 (v1), 25 mM MOPS pH 6.8, 25° C., read-out: Km ± SE
  Km: 75 ± 10 µM
AAD1 (v1); purified AAD1 (v1), Michaelis-Menten fit
  Vmax ± SE: 0.79 ± 0.03 μmol min^−1 mg^−1 AAD1
[2]; 50 g ae/ha foliar
  Ave % Injury 14DAT: 31%
[2]; 200 g ae/ha foliar
  Ave % Injury 14DAT: 73%
[2]; 800 g ae/ha foliar
  Ave % Injury 14DAT: 89%
[2]; 3200 g ae/ha foliar
  Ave % Injury 14DAT: 95%
[3]; 560 g ae/ha, 721(2)013.010 (medium tolerance in T0 generation)
  Average % Injury of Replicates 14 DAT: 5%
[3]; 560 g ae/ha, 721(3)008.005 (high tolerance in T0 generation)
  Average % Injury of Replicates 14 DAT: 0%
[3]; 1120 g ae/ha, 721(2)013.010 (medium tolerance in T0 generation)
  Average % Injury of Replicates 14 DAT: 5%
[3]; 1120 g ae/ha, 721(3)008.005 (high tolerance in T0 generation)
  Average % Injury of Replicates 14 DAT: 0%
[3]; 2240 g ae/ha, 721(2)013.010 (medium tolerance in T0 generation)
  Average % Injury of Replicates 14 DAT: 5%
[3]; 2240 g ae/ha, 721(3)008.005 (high tolerance in T0 generation)
  Average % Injury of Replicates 14 DAT: 0%
[3]; 4480 g ae/ha, 721(2)013.010 (medium tolerance in T0 generation)
  Average % Injury of Replicates 14 DAT: 10%
[3]; 4480 g ae/ha, 721(3)008.005 (high tolerance in T0 generation)
  Average % Injury of Replicates 14 DAT: 5%
[3]; rates below 1× field rates (560 g ae/ha), either event
  injury of T1 AAD1 (v3) tobacco: No injury was observed
[4]; 50 g ae/ha foliar
  Ave % Injury 14DAT: 3%
[4]; 200 g ae/ha foliar
  Ave % Injury 14DAT: 3%
[4]; 800 g ae/ha foliar
  Ave % Injury 14DAT: 3%
[4]; 3200 g ae/ha foliar
  Ave % Injury 14DAT: 3%
Wildtype KY 160 tobacco; 560 g ae/ha
  Average % Injury of Replicates 14 DAT: 70%
Wildtype KY 160 tobacco; 1120 g ae/ha
  Average % Injury of Replicates 14 DAT: 75%
Wildtype KY 160 tobacco; 2240 g ae/ha
  Average % Injury of Replicates 14 DAT: 88%
Wildtype KY 160 tobacco; 4480 g ae/ha
  Average % Injury of Replicates 14 DAT: 95%

## C[C@@H](Oc1ccc(Oc2ccc(C#N)cc2F)cc1)C(=O)O [cyhalofop]
[5]; 62.5 g ae/ha, construct 3404 event 001 clone 018
  % Injury 14 DAT: 0%
[5]; 62.5 g ae/ha, construct 3404 event 022 clone 024
  % Injury 14 DAT: 0%
[5]; 62.5 g ae/ha, construct 3404 event 038 clone 018
  % Injury 14 DAT: 0%
[5]; 125 g ae/ha, construct 3404 event 022 clone 018
  % Injury 14 DAT: 0%
AAD1 (v1)
  A510, AAD1: 0.114
  A510, AAD1 (10x): 1.26
AAD1 (v1); [10]
  activity relative to the dichlorprop rate: 21%
  activity relative to the quizalofop rate: 27%
[6]; Clincher + 1% COC (v/v)
  lethal dose: 62.5 g ae/ha)
[6]; postemergence, commercial formulations
  rate that effectively kills (>95% injury) three to four leaf Hi-II corn: 62.5 g ae/ha

## CP(=O)(O)CCC(N)C(=O)O (stereo not shown) [glufosinate]
[7]; 470 g ae/ha (1X)
  % Injury at 14 DAT Ave: 0%
[7]; 940 g ae/ha (2X)
  % Injury at 14 DAT Ave: 3%
[7]; 1880 g ae/ha (4X)
  % Injury at 14 DAT Ave: 15%
Hi II X 5XH751; 470 g ae/ha (1X)
  % Injury at 14 DAT Ave: 80%
Hi II X 5XH751; 940 g ae/ha (2X)
  % Injury at 14 DAT Ave: 90%
Hi II X 5XH751; 1880 g ae/ha (4X)
  % Injury at 14 DAT Ave: 96%
